Measurements from article PMC3880629 (Journal of medicinal chemistry, 2013).
Where two headings read alike, the source gives them in different places.

Key:
CB1 wild-type receptor [1] = biological target: T1, CB1 wild-type receptor (Homo sapiens, UniProt P21554); settings: earlier report, given for comparison; cited from earlier work
CB1 wild-type receptor [2] = biological target: T1, CB1 wild-type receptor; settings: cited from earlier work; for Effect on CP55,940-induced [35S]GTPγS binding in the presence of allosteric modulator: earlier report, given for comparison
CB1 wild-type receptor [3] = biological target: T1, CB1 wild-type receptor; type: binding; settings: for α: binding cooperativity factor between CP55,940 and the tested allosteric modulator: HEK293 cell membranes expressing CB1, tracer [3H]CP55,940
[4] = Solubility in common organic solvents; type: physicochemical; settings: acetone, ethyl acetate, tetrahydrofuran, dichloromethane, diethyl ether, ethanol and methanol
CB1 wild-type receptor [5] = biological target: T1, CB1 wild-type receptor; assay: [35S]GTPγS binding assay; type: biochemical; settings: for Concentration giving complete inhibition of CP55,940-induced [35S]GTPγS binding / Effect on CP55,940-induced [35S]GTPγS binding in the presence of allosteric modulator: HEK293 cell membranes expressing CB1

T1 sequence (P21554 whole entry): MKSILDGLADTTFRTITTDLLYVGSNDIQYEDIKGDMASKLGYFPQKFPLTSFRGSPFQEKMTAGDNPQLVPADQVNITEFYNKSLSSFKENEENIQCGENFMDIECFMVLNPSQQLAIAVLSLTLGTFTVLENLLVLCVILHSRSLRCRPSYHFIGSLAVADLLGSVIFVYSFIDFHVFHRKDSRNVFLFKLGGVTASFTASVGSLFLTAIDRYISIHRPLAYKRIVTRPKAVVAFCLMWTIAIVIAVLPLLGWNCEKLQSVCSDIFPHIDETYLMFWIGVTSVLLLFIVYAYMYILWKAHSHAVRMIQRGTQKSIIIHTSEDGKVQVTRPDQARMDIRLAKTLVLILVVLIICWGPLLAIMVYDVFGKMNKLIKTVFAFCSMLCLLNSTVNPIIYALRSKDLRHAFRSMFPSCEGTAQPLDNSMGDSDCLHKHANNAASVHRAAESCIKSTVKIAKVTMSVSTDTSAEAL

## CCCCCc1c(C(=O)NCCc2ccc(N3CCCCC3)cc2)[nH]c2ccc(Cl)cc12 [11a, 5-Chloro-3-pentyl-N-(4-(piperidin-1-yl)phenethyl)-1H-indole-2-carboxamide]
CB1 wild-type receptor [1]
  α: binding cooperativity factor between CP55,940 and the tested allosteric modulator: 17.6
CB1 wild-type receptor [2]
  Concentration at which G protein coupling was inhibited: 3.2 µM
  Effect on CP55,940-induced [35S]GTPγS binding in the presence of allosteric modulator: Antagonizing

## O=C(NCCc1ccc(N2CCCCC2)cc1)c1[nH]c2ccc(Cl)cc2c1-c1ccccc1 [11b, 5-Chloro-3-phenyl-N-(4-(piperidin-1-yl)phenethyl)-1H-indole-2-carboxamide]
CB1 wild-type receptor [3]
  α: binding cooperativity factor between CP55,940 and the tested allosteric modulator: 1.0
[4]
  Solubility in organic solvents: very poor solubility

## O=C(NCCc1ccc(N2CCCCC2)cc1)c1[nH]c2ccc(Cl)cc2c1Cc1ccccc1 [11c, 3-Benzyl-5-chloro-N-(4-(piperidin-1-yl)phenethyl)-1H-indole-2-carboxamide]
CB1 wild-type receptor [3]
  α: binding cooperativity factor between CP55,940 and the tested allosteric modulator: 11.37
[4]
  Solubility in organic solvents: very poor solubility

## O=C(NCCc1ccc(N2CCCCC2)cc1)c1[nH]c2ccc(Cl)cc2c1CC1CCCCC1 [11d, 5-Chloro-3-(cyclohexylmethyl)-N-(4-(piperidin-1-yl)phenethyl)-1H-indole-2-carboxamide]
CB1 wild-type receptor [3]
  α: binding cooperativity factor between CP55,940 and the tested allosteric modulator: 9.84
[4]
  Solubility in organic solvents: very poor solubility

## CCCCCCCc1c(C(=O)NCCc2ccc(N3CCCCC3)cc2)[nH]c2ccc(Cl)cc12 [11e]
CB1 wild-type receptor [3]
  α: binding cooperativity factor between CP55,940 and the tested allosteric modulator: 7.38

## CCCCCCCCCc1c(C(=O)NCCc2ccc(N3CCCCC3)cc2)[nH]c2ccc(Cl)cc12 [11f]
CB1 wild-type receptor [5]
  Concentration giving complete inhibition of CP55,940-induced [35S]GTPγS binding: at least 10 μM
  Effect on CP55,940-induced [35S]GTPγS binding in the presence of allosteric modulator: Antagonizing
CB1 wild-type receptor [3]
  α: binding cooperativity factor between CP55,940 and the tested allosteric modulator: 6.80

## CCCCCc1c(C(=O)NCc2ccc(N3CCCCC3)cc2)[nH]c2ccc(Cl)cc12 [11g, 5-Chloro-3-pentyl-N-(4-(piperidin-1-yl)benzyl)-1H-indole-2-carboxamide]
CB1 wild-type receptor [3]
  α: binding cooperativity factor between CP55,940 and the tested allosteric modulator: 1.0

## CCCCCc1c(C(=O)NCCc2ccc(N3CCOCC3)cc2)[nH]c2ccc(Cl)cc12 [11h, 5-Chloro-N-(4-morpholinophenethyl)-3-pentyl-1H-indole-2-carboxamide]
CB1 wild-type receptor [5]
  Concentration giving complete inhibition of CP55,940-induced [35S]GTPγS binding: at least 10 μM
  Effect on CP55,940-induced [35S]GTPγS binding in the presence of allosteric modulator: Antagonizing
CB1 wild-type receptor [3]
  α: binding cooperativity factor between CP55,940 and the tested allosteric modulator: 10.0

## CCCCCc1c(C(=O)NCCc2ccc(Oc3ccccc3)cc2)[nH]c2ccc(Cl)cc12 [11i, 5-Chloro-3-pentyl-1H-indole-2-carboxylic acid [2-(4-phenoxy-phenyl)-ethyl]-amide]
CB1 wild-type receptor [3]
  α: binding cooperativity factor between CP55,940 and the tested allosteric modulator: 13.15

## CCCCCc1c(C(=O)NCCc2ccc(N(C)C)cc2)[nH]c2ccc(Cl)cc12 [11j, 5-Chloro-N-(4-(dimethylamino)phenethyl)-3-pentyl-1H-indole-2-carboxamide]
CB1 wild-type receptor [5]
  Concentration giving complete inhibition of CP55,940-induced [35S]GTPγS binding: 1 µM
  Effect on CP55,940-induced [35S]GTPγS binding in the presence of allosteric modulator: Antagonizing
CB1 wild-type receptor [5]; absence of orthosteric ligand, 5 μM GDP
  Concentration giving complete inhibition of basal [35S]GTPγS binding: 10 µM
CB1 wild-type receptor [3]
  α: binding cooperativity factor between CP55,940 and the tested allosteric modulator: 16.55

## CCCCCc1c(C(=O)NC(CO)Cc2ccc(N(C)C)cc2)[nH]c2ccc(Cl)cc12 (centres unmarked) [11k, 5-Chloro-N-(1-(4-(dimethylamino)phenyl)-3-hydroxypropan-2-yl)-3-pentyl-1H-indole-2-carboxamide]
CB1 wild-type receptor [3]
  α: binding cooperativity factor between CP55,940 and the tested allosteric modulator: 13.27

## CCc1c(C(=O)NCCc2ccc(N(C)C)cc2)[nH]c2ccc(Cl)cc12 [11l, 5-Chloro-N-(4-(dimethylamino)phenethyl)-3-ethyl-1H-indole-2-carboxamide]
CB1 wild-type receptor [3]
  α: binding cooperativity factor between CP55,940 and the tested allosteric modulator: 19.68

## O=C(NCCc1ccc(N2CCCCC2)cc1)c1cc2cc(Cl)ccc2o1 [13a, 5-Chloro-N-(4-(piperidin-1-yl)phenethyl)benzofuran-2-carboxamide]
CB1 wild-type receptor [3]
  α: binding cooperativity factor between CP55,940 and the tested allosteric modulator: 1.0

## CCc1c(C(=O)NCCc2ccc(N3CCCCC3)cc2)oc2ccc(Cl)cc12 [13b, 5-Chloro-3-ethyl-N-(4-(piperidin-1-yl)phenethyl)benzofuran-2-carboxamide]
CB1 wild-type receptor [5]
  Concentration giving complete inhibition of CP55,940-induced [35S]GTPγS binding: at least 10 μM
  Effect on CP55,940-induced [35S]GTPγS binding in the presence of allosteric modulator: Antagonizing
CB1 wild-type receptor [3]
  α: binding cooperativity factor between CP55,940 and the tested allosteric modulator: 18.04

## CCc1c(C(=O)NCCc2ccc(N(C)C)cc2)oc2ccc(Cl)cc12 [13c, 5-Chloro-N-(4-(dimethylamino)phenethyl)-3-ethylbenzofuran-2-carboxamide]
CB1 wild-type receptor [3]; 13c versus 11l
  Fold increase in KB on replacing the indole ring with a benzofuran ring: 3 fold
CB1 wild-type receptor [3]
  α: binding cooperativity factor between CP55,940 and the tested allosteric modulator: 11.59

## CN(C)c1ccc(CCNC(=O)c2cc3cc(Cl)ccc3o2)cc1 [13d, 5-Chloro-N-(4-(dimethylamino)phenethyl)benzofuran-2-carboxamide]
CB1 wild-type receptor [3]
  α: binding cooperativity factor between CP55,940 and the tested allosteric modulator: 1.0

## CCCCCCC(C)(C)c1ccc([C@@H]2C[C@H](O)CC[C@H]2CCCO)c(O)c1 [CP55,940, 2-[(1R,2R,5R)-5-hydroxy-2-(3-hydroxypropyl)cyclohexyl]-5-(2-methyloctan-2-yl)phenol, reference compound]
CB1 wild-type receptor [5]; in the absence of allosteric modulator (11j), mean ± S.E.
  Emax of CP55,940-induced [35S]GTPγS binding: 113.0 ± 2.6 fmol/mg

## CCc1c(C(=O)NCCc2ccc(N3CCCCC3)cc2)[nH]c2ccc(Cl)cc12 [compound 1, 5-chloro-3-ethyl-N-(4-(piperidin-1-yl)phenethyl)-1H-indole-2-carboxamide, reference compound]
CB1 wild-type receptor [1]
  α: binding cooperativity factor between CP55,940 and the tested allosteric modulator: 6.95
CB1 wild-type receptor [2]
  Concentration at which G protein coupling was inhibited: 3.2 µM
  Effect on CP55,940-induced [35S]GTPγS binding in the presence of allosteric modulator: Antagonizing
